This is an account of results in patent publication US9139568B2 (Merck Patent GmbH, priority 2011, dated 2015).

One test deals with AKT (Homo sapiens (Human), UniProt P31749). As to the kind of experiment: AKT Enyzme Assay. The format is biochemical. The conditions noted are these: His-AKT (Full Length), 160 uM ATP, mobility shift (Caliper). As to the method: A TTP Mosquito liquid handling instrument is used to place 125 nl of the appropriate concentration of inhibitor in 100% DMSO (for a dose response curve calculation) into each well of a 384-well plate.
Sequence of AKT (P31749 whole entry): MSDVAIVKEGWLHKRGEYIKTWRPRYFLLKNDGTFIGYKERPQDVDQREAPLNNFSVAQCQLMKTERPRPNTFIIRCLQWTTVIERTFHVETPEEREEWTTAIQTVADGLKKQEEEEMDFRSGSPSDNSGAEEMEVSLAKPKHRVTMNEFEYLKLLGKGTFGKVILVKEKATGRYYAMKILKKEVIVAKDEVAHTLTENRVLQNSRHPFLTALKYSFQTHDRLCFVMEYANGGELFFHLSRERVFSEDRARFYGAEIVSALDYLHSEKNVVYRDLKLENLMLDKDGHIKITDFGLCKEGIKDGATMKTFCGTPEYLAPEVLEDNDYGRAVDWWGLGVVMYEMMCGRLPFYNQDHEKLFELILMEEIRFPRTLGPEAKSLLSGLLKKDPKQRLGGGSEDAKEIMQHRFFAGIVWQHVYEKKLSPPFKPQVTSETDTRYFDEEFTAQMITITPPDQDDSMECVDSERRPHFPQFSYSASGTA
The reaction is incubated for 90 min at 25 C, and then stopped by the addition of 70 μl of Stop buffer (100 mM HEPES pH 7.5, 0.015% Brij-35, 10 mM EDTA (Sigma, E7889)).
The plate is read on a Caliper LC 3000 in an Off-Chip mobility shift assay format, using the following parameters for a 12-sipper chip: screening pressure −2.3 psi, upstream voltage −500, and downstream voltage −3000. These conditions cause unphosphorylated substrate and phosphorylated product peptide to resolve as separate peaks allowing direct measurement of percentage of conversion of substrate to product. The percent conversion can be plotted against concentration of inhibitor to produce a sigmoidal dose response curve, from which an IC50 can be calculated.

For the next test, the target named is P70S6K (Homo sapiens (Human), UniProt P23443, T412E). As to the kind of experiment: P70S6K Enzyme Assay. The test is classed as biochemical. The note with it: P70S6K T412E mutant, 24 μM ATP, mobility shift (Caliper). The method, then: P70S6K inhibitor compounds are diluted and plated in 96 well plates. […] The reaction is incubated for 90 min at 25° C., before the addition of 10 mM EDTA to stop the reaction. The proportion of substrate and product (phosphorylated) peptide is analysed on a Caliper Life Sciences Lab Chip 3000, using a pressure of −1.4 psi, and upstream and downstream voltages of −3000 and −700 respectively. Product peaks are resolved before substrate peaks on the resulting chromatograms.
Sequence of P70S6K (P23443 1-421 T412E): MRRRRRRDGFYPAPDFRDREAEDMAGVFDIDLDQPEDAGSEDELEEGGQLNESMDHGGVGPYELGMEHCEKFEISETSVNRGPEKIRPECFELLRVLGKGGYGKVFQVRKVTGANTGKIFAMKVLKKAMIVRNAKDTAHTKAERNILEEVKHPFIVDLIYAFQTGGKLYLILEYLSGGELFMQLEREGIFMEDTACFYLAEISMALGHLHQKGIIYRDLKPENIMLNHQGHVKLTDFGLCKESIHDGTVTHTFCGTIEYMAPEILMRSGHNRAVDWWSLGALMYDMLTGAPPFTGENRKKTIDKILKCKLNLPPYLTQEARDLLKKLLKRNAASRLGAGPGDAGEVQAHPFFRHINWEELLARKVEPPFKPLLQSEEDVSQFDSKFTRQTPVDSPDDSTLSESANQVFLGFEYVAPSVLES

Molecules are shown by their SMILES.

In general, IC50 refers to the concentration needed to halve the response being measured. Consider `NC(=O)c1ccc(N2CCN(c3cccc(F)c3)CC2)c2cncnc12` [Example 95, 5-[4-(3-fluoro-phenyl)-piperazin-1-yl]-quinazoline-8-carboxylic acid amide], for which the IC50 on AKT came out at 6400 nM; on P70S6K, 770 nM.
The like results for `NC(=O)c1ccc(N2CCC(c3cccc(C(F)(F)F)c3)C(N)C2)c2cncnc12` (racemic) [Example 107, 5-[3-Amino-4-(3-trifluoromethyl-phenyl)-piperidin-1-yl]-quinazoline-8-carboxylic acid amide] were, in that order, 8100 nM and 380 nM.
The like results for `NC(=O)c1ccc(N2CCC(O)(c3ccccc3)C2)c2cncnc12` (racemic) [Example 66, 5-(3-hydroxy-3-phenylpyrrolidin-1-yl)quinazoline-8-carboxamide] were, in that order, more than 100000 nM and 1800 nM.
In the same order, the values of `NC(=O)c1ccc(NCCCCc2ccccc2)c2cncnc12` [Example 102, 5-(4-phenylbutylamino)quinazoline-8-carboxamide] are more than 100000 nM and 87 nM.
For `NC(=O)c1ccc(N[C@H]2CNCC[C@@H]2c2ccc(F)cc2)c2cncnc12` (single isomer, unassigned) [Example 80], the concentration for half-maximal inhibition (IC50) amounted to 2200 nM at AKT and 290 nM on P70S6K.
For the molecule `NC(=O)c1ccc(N2CCN(c3ccc(C(F)(F)F)cc3)CC2)c2cncnc12` [Example 90, 5-[4-(4-Trifluoromethyl-phenyl)-piperazin-1-yl]-quinazoline-8-carboxylic acid amide], the IC50 is more than 100000 nM on AKT and 24000 nM at P70S6K.
In the same order, the values of `NC(=O)c1ccc(NC2CNCC2c2cccc(OC(F)(F)F)c2)c2cncnc12` (stereo not drawn) [Example 72, 5-((4-(3-(trifluoromethoxy)phenyl)pyrrolidin-3-yl)amino)quinazoline-8-carboxamide] are more than 100000 nM and 100 nM.
For the molecule `NC(=O)c1ccc(NC2CNCCC2c2cccc(C(F)(F)F)c2)c2cncnc12` (stereo not drawn) [Example 74, 5-((4-(3-(trifluoromethyl)phenyl)piperidin-3-yl)amino)quinazoline-8-carboxamide], the IC50 on AKT turned out to be 2100 nM; on P70S6K, 140 nM.
Consider `NC(=O)c1ccc(N2CCC(NC(=O)c3ccc(F)c(F)c3)C2)c2cncnc12` (racemic) [Example 50, 5-(3-(3,4-difluorobenzamido)pyrrolidin-1-yl)quinazoline-8-carboxamide], for which, at P70S6K, the IC50 is 380 nM.
The same measure, in the same setting: then `Cc1ccccc1N1CCN(c2ccc(C(N)=O)c3ncncc23)CC1` [Example 120, 5-[4-(2-methyl-phenyl)-piperazin-1-yl]-quinazoline-8-carboxylic acid amide], with 980 nM; and `NC(=O)c1ccc(N2CC[C@@](N)(C(=O)Nc3ccccc3)C2)c2cncnc12` (single isomer, unassigned) [Example 84], with 2150 nM; and `NC(=O)c1ccc(N2CCC(NC(=O)Cc3ccccc3)C2)c2cncnc12` (racemic) [Example 47, 5-(3-(2-phenylacetamido)pyrrolidin-1-yl)quinazoline-8-carboxamide], with 7900 nM.
In the case of `NC(=O)c1ccc(N2CCC(CNC(=O)c3ccc(C(F)(F)F)cc3F)C2)c2cncnc12` (racemic) [Example 55, 5-(3-((2-fluoro-4-(trifluoromethyl)benzamido)methyl)pyrrolidin-1-yl)quinazoline-8-carboxamide], on P70S6K, the 50% inhibitory concentration (IC50) is 290 nM.
On the same count and under the same terms, the figure for `NC(=O)c1ccc(N2CCC(CNC(=O)c3cc(F)ccc3F)C2)c2cncnc12` (racemic) [Example 106, 5-(3-((2,5-difluorobenzamido)methyl)pyrrolidin-1-yl)quinazoline-8-carboxamide] is 510 nM.
Still for that read-out and setting: then `NC(=O)c1ccc(NC(=O)C2NC[C@@H]2c2ccccc2)c2cccnc12` (stereo partly drawn) [Example 30, 5-((3S)-3-phenylazetidine-2-carboxamido)quinoline-8-carboxamide], with more than 1000 nM; and `NC(=O)c1ccc(N2CC[C@H](c3ccc(F)cc3)[C@@H](N)C2)c2cncnc12` (racemic) [Example 87, 5-[(3R,4R)-3-Amino-4-(4-fluoro-phenyl)-piperidin-1-yl]-quinazoline-8-carboxylic acid amide], with 7100 nM; and `NC(=O)c1ccc(N2CCN(c3ccc(Cl)cc3)CC2)c2cncnc12` [Example 93, 5-[4-(4-chloro-phenyl)-piperazin-1-yl]-quinazoline-8-carboxylic acid amide], with 1000 nM.
Same read-out and setting: then `NC(=O)c1ccc(NC(=O)C(N)c2ccccc2)c2cccnc12` (racemic) [Example 29, 5-(2-amino-2-phenylacetamido)quinoline-8-carboxamide], with more than 1000 nM; and `NC(=O)c1ccc(N2CCC(c3ccc(C(F)(F)F)cc3)C(N)C2)c2cncnc12` (racemic) [Example 83, 5-(3-amino-4-(4-(trifluoromethyl)phenyl)piperidin-1-yl)quinazoline-8-carboxamide], with 350 nM.
With `NC(=O)c1ccc(NCc2ccc(F)cc2)c2cccnc12` [Example 31, 5-(4-Fluorobenzylamino)-quinoline-8-carboxamide], the IC50 at P70S6K was 875 nM.
Still for that read-out and setting: then `NC(=O)c1ccc(NC2CNC[C@@H]2c2ccc3cccnc3c2)c2cccnc12` (mixture of isomers) [Example 17, 5-((-4-(quinolin-7-yl)pyrrolidin-3-yl)amino)quinoline-8-carboxamide], with 190 nM.
The same measure, in the same setting: the figure for `NC(=O)c1ccc(N2CCC(NC(=O)c3cccc(C(F)(F)F)c3)C2)c2cncnc12` (racemic) [Example 48, 5-(3-(3-(trifluoromethyl)benzamido)pyrrolidin-1-yl)quinazoline-8-carboxamide] is 2200 nM; for `NC(=O)c1ccc(NC2CNC[C@H]2c2cc(F)cc(Cl)c2)c2cccnc12` (stereo partly drawn) [Example 26, 5-(((4R)-4-(3-chloro-5-fluorophenyl)pyrrolidin-3-yl)amino)quinoline-8-carboxamide] it is 350 nM.
On to `NC(=O)c1ccc(NCC(c2ccccc2)N2CCNCC2)c2cncnc12` (racemic) [Example 69, 5-((2-phenyl-2-(piperazin-1-yl)ethyl)amino)quinazoline-8-carboxamide], for which the IC50 at AKT turned out to be 10000 nM.
As to `NC(=O)c1ccc(N2CCN(c3ccccc3Cl)CC2)c2cncnc12` [Example 119, 5-[4-(2-chloro-phenyl)-piperazin-1-yl]-quinazoline-8-carboxylic acid amide], the IC50 on P70S6K amounted to 400 nM.
Take `NC(=O)c1ccc(NCc2cccc(Cl)c2)c2cccnc12` [Example 34, 5-(3-Chlorobenzylamino)-quinoline-8-carboxamide]: the 50% inhibitory concentration (IC50) on P70S6K turned out to be 140 nM.
On the same count and under the same terms, then `NC(=O)c1ccc(N[C@@H]2CNC[C@H]2c2cccc(OC(F)(F)F)c2)c2cccnc12` (single isomer, unassigned) [Example 23], with 690 nM.
The same measure, in the same setting: then `NC(=O)c1ccc(NC(CN2CCCC2)c2ccccc2)c2cccnc12` (stereo not drawn) [Example 39], with more than 1000 nM; and `NC(=O)c1ccc(NC2CNC[C@@H]2c2cccc(OC(F)(F)F)c2)c2cccnc12` (single isomer, unassigned) [Example 22], with 31 nM.
The same measure, in the same setting: then `NC(=O)c1ccc(N2CC[C@H](CNC(=O)c3ccc(F)c(F)c3)C2)c2cncnc12` (single isomer, unassigned) [Example 114], with 470 nM; and `NC(=O)c1ccc(N2CC[C@H](c3cccc(F)c3)[C@H](N)C2)c2cncnc12` (racemic) [Example 88, 5-[(3S,4R)-3-Amino-4-(3-fluoro-phenyl)-piperidin-1-yl]-quinazoline-8-carboxylic acid amide], with 17100 nM.
Turning to `NC(=O)c1ccc(N2CCC(CNC(=O)c3ccc(F)c(F)c3)C2)c2cncnc12` (racemic) [Example 54, 5-(3-((3,4-difluorobenzamido)methyl)pyrrolidin-1-yl)quinazoline-8-carboxamide], the IC50 on P70S6K amounted to 233 nM.
Still for that read-out and setting: then `COc1ccccc1N1CCN(c2ccc(C(N)=O)c3ncncc23)CC1` [Example 122, 5-[4-(2-methoxyphenyl)-piperazin-1-yl]-quinazoline-8-carboxylic acid amide], with 11000 nM.
On the same count and under the same terms, the figure for `NC(=O)c1ccc(NCC2(C(=O)Nc3ccccc3)CCNC2)c2cncnc12` (racemic) [Example 12, 5-(((3-(phenylcarbamoyl)pyrrolidin-3-yl)methyl)amino)quinazoline-8-carboxamide] is 650 nM; for `NC(=O)c1ccc(NCCc2ccccc2)c2cccnc12` [Example 40, 5-(Phenylethylamino)-quinoline-8-carboxamide] it is more than 1000 nM.
Still for that read-out and setting: then `NC(=O)c1ccc(NCc2ccc(Cl)c(C(F)(F)F)c2)c2cccnc12` [Example 38, 5-(4-Chloro-3-trifluoromethylbenzylamino)-quinoline-8-carboxamide], with more than 1000 nM; and `NC(=O)c1ccc(NC2CNCCC2c2ccc(C(F)(F)F)c(F)c2)c2cncnc12` (racemic) [Example 4, 5-((4-(3-fluoro-4-(trifluoromethyl)phenyl)piperidin-3-yl)amino)quinazoline-8-carboxamide], with 5.9 nM.
